Data on two molecules can be found in patent US7632870B2, “Composition based on substituted 1,3-diphenylprop-2-en-1-one derivatives, preparation and uses thereof” (Genfit, priority 2002, dated 2009).

One assay relates to LDL. Kind of assay: Protection against LDL oxidation by copper (conjugated diene formation). It counts as biochemical. The note with it: FIG. 1-3; compound at 10^-4M; copper alone 348. The protocol: LDL oxidation is an important alteration and plays a predominant role in the establishment and development of atherosclerosis (Jurgens, Hoff et al. 1987). […] Unless otherwise indicated, the reagents were from Sigma (St Quentin, France).
LDL were prepared according to the method described by Lebeau et al. (Lebeau, Furman et al. 2000).
The solutions of test compounds were prepared at 10^−2 M concentration in bicarbonate buffer (pH 9) and diluted in PBS to obtain final concentrations ranging from 0.1 to 100 μM for a total ethanol concentration of 1% (V/V).
Prior to oxidation, EDTA was removed from the LDL preparation by dialysis. Oxidation then took place at 30° C. by addition of 100 μl of 16.6 μM CuSO4 solution to 160 μL of LDL (125 μg protein/ml) and 20 μl of a test compound solution. The formation of dienes, the species under observation, was followed by measuring optical density at 234 nm in the samples treated with the compounds but in the presence or absence of copper. Optical density at 234 nm was measured every 10 minutes for 8 hours in a thermostated spectrophotometer (Tecan Ultra 380). The analyses were performed in triplicate. The compounds were considered to have antioxidant activity when they induced a longer lag phase and reduced the rate of oxidation and the amount of dienes formed in comparison with the control sample. […] FIGS. 1, 2 and 3 give an example of the results illustrating the antioxidant properties of compounds 2 and 5.

For assay [1], the system named is Apo E2/E2 transgenic mice. Put plainly: Effects on triglyceride and cholesterol metabolism in vivo. The protocol: Apo E2/E2 transgenic mice were kept on a 12-hour light/dark cycle at a constant temperature of 20±3° C. After a 1 week acclimation, the mice were weighed and divided into groups of 6 animals selected so that body weight would be uniformly distributed. The test compounds were suspended in carboxymethylcellulose and administered by intragastric gavage at the indicated doses, once a day for 7 or 8 days. Animals had access to food and water ad libitum. At the end of the experiment the animals were weighed and sacrificed under anesthesia. Blood was collected on EDTA. Plasma was prepared by centrifugation at 3000 rpm for 20 minutes. Liver samples were taken and stored frozen in liquid nitrogen for subsequent analysis.
Serum lipid concentrations (total cholesterol and free cholesterol, triglycerides and phospholipids) were determined by a colorimetric assay (Boehringer, Mannheim, Germany) according to the supplier's instructions. Serum concentrations of apolipoproteins AI, AII and CIII were determined as previously described (Raspe et al. J. Lipid Res. 40, 2099-2110, 1999, Asset G et al., Lipids, 34, 39-44, 1999).

The next assay addresses T1, PPARα (Homo sapiens, UniProt Q07869).
T1 construct: expressed in transfected cells; host or cells: RK13 cells
T1 sequence (Q07869 239-466 limits assumed): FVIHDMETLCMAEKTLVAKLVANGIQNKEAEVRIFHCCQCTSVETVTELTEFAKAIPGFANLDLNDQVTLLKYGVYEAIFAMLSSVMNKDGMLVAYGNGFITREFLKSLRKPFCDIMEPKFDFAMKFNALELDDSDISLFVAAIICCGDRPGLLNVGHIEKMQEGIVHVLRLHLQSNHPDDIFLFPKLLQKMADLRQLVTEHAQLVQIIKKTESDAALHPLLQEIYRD
Kind of assay: PPARα/Gal4 transactivation system in RK13 cells (luciferase reporter). It counts as cell-based, rabbit. The note with it: 24 hours. The protocol: RK13 cells were incubated with the different compounds at concentrations of 10, 30 and 100 μM or 1, 10 and 100 μM for 24 hours. The results are expressed as the induction factor (luminescent signal relative to untreated cells) after the different treatments.
(§1) PPAR activation was tested in vitro in RK13 fibroblast cell lines by measuring the transcriptional activity of chimeras composed of the DNA binding domain of the yeast gal4 transcription factor and the ligand binding domain of the different PPARs. These latter results were then confirmed in cell lines according to the following protocols:
(§2) RK13 cells were from ECACC (Porton Down, UK) and were grown in DMEM medium supplemented with 10% (V/N) fetal calf serum, 100 U/ml penicillin (Gibco, Paisley, UK) and 2 mM L-glutamine (Gibco, Paisley, UK). The culture medium was changed every two days. Cells were kept at 37° C. in a humidified 95% air/5% CO2 atmosphere.
(§3) The plasmids pG5TkpGL3, pRL-CMV, pGal4-hPPRAα, pGal4-hPPRAγ and pGal4-φ have been described by Raspe, Madsen et al. (1999). The pGal4-mPPRAα and pGal4-hPPRAγ constructs were obtained by cloning into the pGal4-φ vector of PCR-amplified DNA fragments corresponding to the DEF domains of the human PPARα and PPRAγ nuclear receptors.
[…] At the end of the experiment, the cells were lysed (Gibco, Paisley, UK) and luciferase activity was determined with a Dual-Luciferase™ Reporter Assay System kit (Promega, Madison, Wis., USA) according to the supplier's instructions as previously described (Raspe, Madsen et al. 1999).

For another assay, the target named is T2, PPARγ (Homo sapiens, UniProt P37231).
T2 construct: expressed in transfected cells; host or cells: RK13 cells
T2 sequence (P37231 238-503 limits assumed): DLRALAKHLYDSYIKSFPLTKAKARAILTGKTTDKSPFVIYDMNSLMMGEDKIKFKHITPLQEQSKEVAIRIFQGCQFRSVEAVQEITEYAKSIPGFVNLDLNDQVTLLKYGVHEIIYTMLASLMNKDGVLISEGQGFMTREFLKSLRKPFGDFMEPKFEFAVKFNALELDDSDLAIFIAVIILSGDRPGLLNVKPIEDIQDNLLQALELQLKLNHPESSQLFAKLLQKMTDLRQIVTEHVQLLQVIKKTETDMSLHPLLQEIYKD
Put plainly: PPARγ/Gal4 transactivation system in RK13 cells (luciferase reporter). The assay is classed as cell-based. As to conditions: 24 hours. The protocol: RK13 cells were incubated with the different compounds at concentrations of 1, 10 and 100 μM for 24 hours. The results are expressed as the induction factor (luminescent signal relative to untreated cells) after the different treatments.
as §1, §2, §3
RK13 cells were seeded in 24-well culture dishes at 5×10^4 cells/well and transfected for 2 hours with the reporter plasmid pG5TkpGL3 (50 ng/well), the expression vectors pGal4-φ, pGal4-mPPRAα, pGal4-hPPRAα, pGal4-hPPRAγ (100 ng/well) and the transfection efficiency control vector PRL-CMV (1 ng/well) according to the previously described protocol (Raspe, Madsen et al. 1999), then incubated for 36 hours with the test compounds. At the end of the experiment, the cells were lysed (Gibco, Paisley, UK) and luciferase activity was determined with a Dual-Luciferase™ Reporter Assay System kit (Promega, Madison, Wis., USA) according to the supplier's instructions as previously described (Raspe, Madsen et al. 1999).

With `Cc1cc(/C=C/C(=O)c2ccc(Cl)cc2)cc(C)c1OC(C)(C)C(=O)O` [Compound 17, 1-[4-chlorophenyl]-3-[3,5-dimethyl-4-carboxydimethylmethyloxyphenyil]prop-2-en-1-one], in the assay on LDL, the “maximum amount of conjugated dienes formed” value was 327 nmol per mg of LDL. The “triglycerides in large sized lipoparticles (exclusion chromatography)” value in assay [1] (gavage 200 mg/kg for 7 days, FIG. 3-3) was “decreased”. Also, the “cholesterol in large sized lipoparticles (exclusion chromatography)” value in assay [1] (gavage 200 mg/kg for 7 days, FIG. 3-4) is on record as “decreased”. Also, the “Induction factor (luminescent signal relative to untreated cells)” value at PPARα (1 μM) is 79.76; at PPARα (10 μM, listed as Cp17), 85.69; on PPARγ (1 μM) it was 15.37; on PPARγ (10 μM) it was 25; at PPARγ (10 μM, listed as Cp17), 24.92; at PPARγ (100 μM), 6.13.
In the case of `CCCCCCOc1ccc(C(=O)/C=C/c2cc(C)c(OC(C)(C)C(=O)O)c(C)c2)cc1` [Compound 33, 1-[4-hexyloxyphenyl]-3-[3,5-dimethyl-4-carboxydimethylmethyloxyphenyl]prop-2-en-1-one], the “triglycerides in large sized lipoparticles (exclusion chromatography)” value in assay [1] (50 mg/kg/day for 8 days, FIG. 3-11) was “decrease”. Moreover, the “cholesterol in large sized lipoparticles (exclusion chromatography)” value in assay [1] (50 mg/kg/day for 8 days, FIG. 3-12) is “decrease”. In addition, the “Induction factor (luminescent signal relative to untreated cells)” value at PPARα (1 μM, listed as Cp33) is recorded as 22.05; at PPARα (10 μM, listed as Cp33), 44.52; at PPARα (100 μM, listed as Cp33), 77.62; on PPARγ (1 μM), 15.65; at PPARγ (10 μM), 33.90; on PPARγ (100 μM), 45.6. Moreover, the “Induction factor (luminescent signal relative to untreated cells)” value at PPARγ (100 μM, listed as Cp33) is 45.58.
